This passage reports GI50 and TGI results from PubChem BioAssay (NCI).

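Compound exposure: 48 hours, 5 concentrations, 96-well plates. The concentration for 50% growth inhibition is given as GI50. TGI: concentration producing complete growth inhibition.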 Where a SMILES comes first, the peptide text is derived from it. The star is where a group is joined. Cbz = O=C(OCc1ccccc1)*; CH2Cl = ClC*

Among the test systems are U251 CNS; K-562 leukemia; MOLT-4 leukemia; SF-539 CNS; HT29 colon; SK-MEL-28 melanoma; UACC-62 melanoma; IGROV1 ovarian; UACC-257 melanoma; NCI-H23 lung.
What all share (test): NCI anticancer screen, dose series, 48 h

For the molecule `O=C1OCC2=C1C(c1cccc(Br)c1)c1cc3c(cc1N2CCO)CCC3` (stereo unspecified), the GI50 in the assay with U251 CNS was 0.108 µM; with K-562 leukemia it was 0.11 µM; in the assay on MOLT-4 leukemia it was 0.262 µM; in the assay on SF-539 CNS, 0.0801 µM; in the assay on HT29 colon, 0.109 µM; in the assay on SK-MEL-28 melanoma, 0.0564 µM. For the same molecule, the GI50 with UACC-62 melanoma is 0.0223 µM; in the assay on IGROV1 ovarian, 0.157 µM; in the assay on UACC-257 melanoma, 0.0235 µM; with NCI-H23 lung it was 0.136 µM. For the same molecule, the TGI in the assay on U251 CNS is 1.55 µM; with K-562 leukemia, 7.9 µM; in the assay with MOLT-4 leukemia, 14.2 µM; with SF-539 CNS, 5.46 µM; in the assay on HT29 colon it was 1.3 µM; in the assay on SK-MEL-28 melanoma it was 10.3 µM. The TGI was found to be 8.18 µM in the assay on UACC-62 melanoma, 10.7 µM in the assay with IGROV1 ovarian, 8.12 µM in the assay with UACC-257 melanoma and 8.42 µM in the assay on NCI-H23 lung.

For the molecule `CC(C)CC(NC(=O)OCc1ccccc1)C(=O)NC(Cc1ccccc1)C(=O)CCl` (stereo not drawn) (Cbz-Leu-Phe-CH2Cl; configuration not given here), the TGI was 22 µM in the assay with U251 CNS; 6.77 µM in the assay on K-562 leukemia; 4.33 µM in the assay on MOLT-4 leukemia; 10.2 µM with SF-539 CNS; 7.54 µM in the assay on HT29 colon; 3.97 µM with SK-MEL-28 melanoma. Further, the TGI with UACC-62 melanoma was found to be 7.82 µM; in the assay with IGROV1 ovarian, 4.11 µM; in the assay with UACC-257 melanoma, 23.7 µM; in the assay on NCI-H23 lung, 4.9 µM.

As for `COc1ccc2c(c1)C(=O)c1c-2c(N2CCN(C(=O)CNCCNCCO)CC2)nc2ccccc12`, the GI50 is 4.08 µM with U251 CNS; 2.85 µM with K-562 leukemia; 2.19 µM in the assay on MOLT-4 leukemia; 3.08 µM in the assay on SF-539 CNS; 1.61 µM in the assay on HT29 colon; 2.02 µM in the assay on SK-MEL-28 melanoma. For the same molecule, the values for the GI50 with UACC-62 melanoma, in the assay with IGROV1 ovarian and in the assay on UACC-257 melanoma were 2.82 µM, 1.72 µM and 2.83 µM, respectively. Moreover, the TGI amounted to 16.3 µM with U251 CNS; 11.9 µM in the assay on K-562 leukemia; 6.61 µM in the assay on MOLT-4 leukemia; 10.6 µM in the assay on SF-539 CNS; 3.05 µM in the assay on HT29 colon; 3.54 µM in the assay with SK-MEL-28 melanoma. Also, the TGI worked out at 8.64 µM in the assay on UACC-62 melanoma, 4.73 µM in the assay on IGROV1 ovarian and 6.4 µM in the assay on UACC-257 melanoma.

`COC(=O)C(Cc1nc2ccc(Cl)cc2[nH]c1=O)/C(=N\N)C(=O)Nc1cc(C)c(Cl)cc1S(=O)(=O)O` (stereo unspecified): the TGI in the assay with U251 CNS, with K-562 leukemia, in the assay on MOLT-4 leukemia, with SF-539 CNS, with HT29 colon and in the assay with SK-MEL-28 melanoma was above 100 µM each time. In addition, the TGI in the assay on UACC-62 melanoma, in the assay on IGROV1 ovarian, with UACC-257 melanoma and in the assay with NCI-H23 lung was above 100 µM throughout.

On to `CS(=O)(=O)CCNCc1nc(-c2ccc3ncnc(Nc4ccc(OCc5cccc(C(F)(F)F)c5)cc4)c3c2)cs1`, for which the GI50 with U251 CNS was 5.9 µM; in the assay with K-562 leukemia, above 25 µM; in the assay on MOLT-4 leukemia it was above 25 µM; in the assay with SF-539 CNS it was above 25 µM; with HT29 colon, above 17.6 µM; in the assay with SK-MEL-28 melanoma, above 20.6 µM. The GI50 in the assay with UACC-62 melanoma was above 25 µM; in the assay on IGROV1 ovarian it was 5.4 µM; in the assay on UACC-257 melanoma it was above 25 µM; in the assay with NCI-H23 lung it was 12.5 µM. Moreover, the TGI is above 22.6 µM with U251 CNS; above 25 µM with K-562 leukemia; above 25 µM in the assay on MOLT-4 leukemia; above 25 µM in the assay on SF-539 CNS; above 25 µM in the assay on HT29 colon; above 25 µM in the assay on SK-MEL-28 melanoma. Further, the TGI in the assay on UACC-62 melanoma, with IGROV1 ovarian, in the assay with UACC-257 melanoma and with NCI-H23 lung was above 25 µM throughout.

Turning to `O=c1ccn([C@H]2CSC[C@@H](CO)C2)c(=O)[nH]1`, the TGI in the assay on U251 CNS, in the assay with K-562 leukemia, in the assay on MOLT-4 leukemia, in the assay with SF-539 CNS, in the assay with HT29 colon and with SK-MEL-28 melanoma was above 100 µM in each case. Moreover, the TGI in the assay with UACC-62 melanoma, in the assay with IGROV1 ovarian, with UACC-257 melanoma and in the assay on NCI-H23 lung was above 100 µM each time.

Take `CC12CP(=O)(c3ccccc3)CC1C2(Cl)Cl` (stereo unspecified): the TGI in the assay on U251 CNS, in the assay with K-562 leukemia, with MOLT-4 leukemia, in the assay with SF-539 CNS, in the assay on HT29 colon and with SK-MEL-28 melanoma was above 100 µM each time. Moreover, the TGI with UACC-62 melanoma, with IGROV1 ovarian and with NCI-H23 lung was above 100 µM in each case.

For the molecule `Nc1nc(/C=C\c2ccc([N+](=O)[O-])s2)nc(N2CCCC2)n1`, the GI50 is 1.83 µM in the assay on K-562 leukemia; 2.16 µM with MOLT-4 leukemia; 8.24 µM with SF-539 CNS; 2.97 µM in the assay on HT29 colon; 9.33 µM in the assay on SK-MEL-28 melanoma; 1.43 µM in the assay with UACC-62 melanoma. The GI50 was 4.72 µM in the assay on IGROV1 ovarian, 4.39 µM with UACC-257 melanoma and 5.84 µM in the assay with NCI-H23 lung. Moreover, the TGI in the assay on K-562 leukemia worked out at 8.32 µM; with MOLT-4 leukemia it was 12.1 µM; in the assay with SF-539 CNS, 30.4 µM; in the assay with HT29 colon, 14.8 µM; in the assay with SK-MEL-28 melanoma it was 23.6 µM; in the assay on UACC-62 melanoma it was 8.67 µM. The TGI in the assay on IGROV1 ovarian was found to be 17.2 µM; with UACC-257 melanoma it was 15.6 µM; in the assay with NCI-H23 lung, 18.6 µM.

As for `C=CCCCCOc1ccccc1-c1cnc(OCCCCC=C)n1C`, the GI50 with K-562 leukemia was 3.74 µM; in the assay with MOLT-4 leukemia it was 4.54 µM; in the assay on SF-539 CNS, 5.82 µM; in the assay on HT29 colon, 3.22 µM; with SK-MEL-28 melanoma, 4.51 µM; in the assay on UACC-62 melanoma it was 3.93 µM. The GI50 in the assay on IGROV1 ovarian was 4.64 µM; in the assay with UACC-257 melanoma, 2.14 µM; with NCI-H23 lung it was 5.04 µM. Moreover, the TGI in the assay on K-562 leukemia came out at 14.1 µM; with MOLT-4 leukemia it was 18.7 µM; in the assay on SF-539 CNS, 19.7 µM; in the assay on HT29 colon, 10.2 µM; in the assay on SK-MEL-28 melanoma, 31.6 µM; in the assay on UACC-62 melanoma, 17.4 µM. The TGI with IGROV1 ovarian stood at 20.1 µM; with UACC-257 melanoma it was 12.9 µM; in the assay on NCI-H23 lung, 26.8 µM.

In the case of `COc1ccc(CC2NCCc3c2[nH]c2ccccc32)cc1` (stereo unspecified), the TGI in the assay on U251 CNS, with K-562 leukemia, in the assay with MOLT-4 leukemia, in the assay with SF-539 CNS, with HT29 colon and in the assay with SK-MEL-28 melanoma was above 100 µM in each case. The TGI in the assay on UACC-62 melanoma and in the assay on IGROV1 ovarian was above 100 µM in each case.
